Data set [1] can be described thus: One-pot thiol-to-amine (S-to-N) bis-alkylation/conjugate addition/SNAr: Cys thiol and N-terminal secondary benzylamine (peptoid-type) bridged by bis-electrophile linkers 1-6 (8 equiv, 800 uM) after TCEP removal of the S-SO3H group (TCEP 400 uM, excess benzylamine 1.6 mM present). To be noted: the molecule shown is the open-chain precursor, 60 mM aq NH4HCO3 pH 8 with about 5% DMSO, 0.1 mM, 37.0 °C, 3 steps, scale: %.

For data set [2], the target named is T1, human thrombin (Homo sapiens, UniProt P00734).
T1 construct: consists of two polypeptide chains of 259 (H-chain) and 37 amino acid residues; purchased Molecular Innovations
The experiment in a line: Determination of the inhibitory constants of purified macrocycles (thrombin, fluorogenic substrate Z-Gly-Gly-Arg-AMC). The class given is biochemical. To be noted: for Ki: purified macrocycle, 2 nM thrombin, 50 μM Z-Gly-Gly-Arg-AMC, Ki from IC50 by Cheng-Prusoff. The protocol:
Determination of the inhibitory constants of macrocycles
The IC50s of macrocycles were determined by measuring the residual activity of thrombin at different dilutions of macrocycle using a fluorogenic substrate. The reactions were performed in a volume of 150 µl in 96-well plates. A volume of 50 µl of 2-fold dilutions of macrocycle in assay buffer (10 mM Tris-Cl [pH 7.4], 150 mM NaCl, 10 mM MgCl2, 1 mM CaCl2, 0.1% w/v BSA, 0.01% v/v Triton-X100) were pipetted to the wells. A volume of 50 µl of thrombin (6 nM) in assay buffer was added to each well to reach a final concentration of 2 nM and was incubated for 15 min. A volume of 50 µl of the fluorogenic substrate Z-Gly-Gly-Arg-AMC (150 µM) in assay buffer containing 3% DMSO was added to reach a final substrate concentration of 50 µM and 1% DMSO. Fluorescence intensity was measured for 30 min using an Infinite M200Pro plate reader (Tecan; excitation at 368 nm, emission at 467 nm) with a read every minute.
Sigmoidal curves were fitted to the data using Prism 5 (GraphPad software) and the following dose- […]
wherein x is macrocycle concentration, y is % protease activity, and p is Hill slope. IC50 values were derived […]
The inhibitory constants (Ki) were calculated using the following equation of Cheng and Prusoff: […]
wherein IC50 is the functional strength of the inhibitor, [S]0 is the total substrate concentration, and Km is the Michaelis-Menten constant. The Km for thrombin and the substrate Z-Gly-Gly-Arg-AMC was determined to […]

Data set [3] has as its system panel of nine human proteases. The experiment in a line: Determination of target specificity against a panel of trypsin-like serine proteases. The class given is biochemical. To be noted: panel of nine human proteases structurally and functionally most similar to thrombin. The protocol: (§1) Determination of target specificity
(§2) The specificity was profiled by testing the inhibition of a panel of trypsin-like serine proteases using fluorogenic or chromogenic substrates. Dilutions of macrocycle were prepared ranging from 40 µM to 40 nM for all proteases except for thrombin (1 µM to 1 nM). The following final concentrations of human proteases were used: 2 nM thrombin (Molecular Innovations), 0.6 nM activated protein C (APC, Molecular Innovations), 1.5 nM uPA (Molecular Innovations), 0.25 nM plasma kallikrein (Innovative Research), 1 nM factor XIa (Innovative Research), 7.5 nM tPA (Molecular Innovations), 0.1 nM trypsin (Molecular Innovations), 3 nM factor XIIa (Molecular Innovations), and 2.5 nM plasmin (Molecular Innovations). […]
(§3) A volume of 50 µl of the substrate in assay buffer containing 3% DMSO was added. Fluorescence intensity was measured for 30 min using an Infinite M200Pro plate reader (Tecan; excitation at 368 nm, emission at 467 nm) with a read every minute. For APC protease, absorption was measured at 405 nm with the same plate reader for a period of 30 min with a read every minute. […] The inhibitory constants were calculated as described above. […]
(§4) Coagulation times were determined in human plasma using a STAGO STart4 coagulation analyzer (Diagnostica). […]
(§5) ball stopped moving was recorded as coagulation time. […]

Data set [4] relates to human plasma. The data set is described as follows: Activated partial thromboplastin time (aPTT), intrinsic coagulation pathway, in human plasma. The class given is biochemical. To be noted: EC2× = concentration for 2-fold increase in coagulation time. The protocol: as §1, §2, §3, §4, §5
Data set [5] relates to human plasma. The experiment in a line: Prothrombin time (PT), extrinsic coagulation pathway, in human plasma. The class given is biochemical. To be noted: EC2× = concentration for 2-fold increase in coagulation time. The protocol: as §1, §2, §3, §4, §5

Take `C=CS(=O)(=O)CCSC[C@H](NC(=O)CNC(=O)CNCc1ccccc1)C(=O)NCC(=O)N[C@@H](Cc1c[nH]c2ccccc12)C(N)=O` [Bn-NH-CH2CO-Gly-Cys(SH)-Gly-Trp-NH2]: the ring closure, conversion by HPLC in data set [1] (15-membered ring) was found to be 93. For the molecule `C=CS(=O)(=O)CS(=O)(=O)CCSC[C@H](NC(=O)CNC(=O)CNCc1ccccc1)C(=O)NCC(=O)N[C@@H](Cc1c[nH]c2ccccc12)C(N)=O` [Bn-NH-CH2CO-Gly-Cys(SH)-Gly-Trp-NH2], the ring closure, conversion by HPLC in data set [1] (17-membered ring) turned out to be 41. With `NC(=O)[C@H](Cc1c[nH]c2ccccc12)NC(=O)CNC(=O)[C@H](CSCc1ccc(CBr)cc1)NC(=O)CNC(=O)CNCc1ccccc1` [Bn-NH-CH2CO-Gly-Cys(SH)-Gly-Trp-NH2], the ring closure, conversion by HPLC in data set [1] (16-membered ring) stood at 18. With `NC(=O)[C@H](Cc1c[nH]c2ccccc12)NC(=O)CNC(=O)[C@H](CSCc1cccc(CBr)n1)NC(=O)CNC(=O)CNCc1ccccc1` [Bn-NH-CH2CO-Gly-Cys(SH)-Gly-Trp-NH2], in data set [1] (15-membered ring), the ring closure, conversion by HPLC was determined as 86. In the case of `NC(=O)[C@H](Cc1c[nH]c2ccccc12)NC(=O)CNC(=O)[C@H](CSCc1ccccc1CBr)NC(=O)CNC(=O)CNCc1ccccc1` [Bn-NH-CH2CO-Gly-Cys(SH)-Gly-Trp-NH2], in data set [1] (14-membered ring), the ring closure, conversion by HPLC stood at 32. Regarding `NC(=O)[C@H](Cc1c[nH]c2ccccc12)NC(=O)CNC(=O)[C@H](CSc1ncnc(Cl)n1)NC(=O)CNC(=O)CNCc1ccccc1` [Bn-NH-CH2CO-Gly-Cys(SH)-Gly-Trp-NH2], the ring closure, conversion by HPLC in data set [1] (13-membered ring) amounted to 67. On to `N=C(N)NCCCC1NC(=O)CC2CCCN2C(=O)CN(Cc2ccccc2CO)Cc2ccccc2CSCC(C(N)=O)NC1=O` (centres unmarked) [macrocycle 7], for which the Ki (as a rule, the dissociation constant of the complex between target and ligand, obtained from inhibition or displacement) in data set [2] was determined as 59 ± 6 nM. In data set [2], `N=C(N)NCCC[C@@H]1NC(=O)C[C@H]2CCCN2C(=O)CN(Cc2ccco2)Cc2ccccc2CSC[C@@H](C(N)=O)NC1=O` [macrocycle 57] gave a Ki of 10.6 ± 2 nM. In data set [2] (thrombin Ki relative to 7), the “fold improvement of Ki over parental macrocycle 7” value was 5.5 fold. In data set [3], the target selectivity entry is reported as “high target selectivity”. The “fold better aPTT EC2× than parent 7” value in data set [4] is listed as 1.4 fold. For the same molecule, in data set [5], the “fold better PT EC2× than parent 7” value was determined as 1.9 fold. Regarding `N=C(N)NCCC[C@@H]1NC(=O)C[C@H]2CCCN2C(=O)CN(Cc2ccccc2CO)Cc2ccccc2CSC[C@@H](C(N)=O)NC1=O` [macrocycle 60], the Ki in data set [2] is 95 ± 17 nM. The same measure, in the same setting: next, `N=C(N)NCCC[C@@H]1NC(=O)C[C@@H]2CCCN2C(=O)CN(Cc2ccco2)Cc2ccccc2CSC[C@@H](C(N)=O)NC1=O` [macrocycle 61]: 520 ± 110 nM.

The values above are taken from paper PMC8163216, “Macrocycle synthesis strategy based on step-wise “adding and reacting” three components enables screening of large combinatorial libraries” (Chemical Science, 2020).
